Data published in US9375484B2, “Taxane silicate prodrugs and nanoparticles” (REGENTS OF THE UNIVERSITY OF MINNESOTA, priority 2011, dated 2016).
pIC50: −log10 of the molar value. Read-outs that look alike come from different tables or passages of the source. Marks after values point to notes of the source that are not given here.

Tests used:
[1] = PTX silicate hydrolysis rates by 1H NMR; format: physicochemical; details: for krel at C2′ (hydrolysis rate relative to the slowest, 1d) / krel at C7 (hydrolysis rate relative to the slowest, 1d): d6-acetone:D2O:TFA 90:9:1, room temperature; for krel at C2′ (hydrolysis rate relative to the slowest, 1d): 1d = 1.0, ± SD of three trials; for krel at C7 (hydrolysis rate relative to the slowest, 1d): for 2a/2b rate of in situ generated 3a/3b to PTX
Protocol: A known quantity of a PTX prodrug was dissolved in 900 μL of d6-acetone. To this homogenous solution, 100 μL of a 9:1 solution of D2O: trifluoroacetic acid (TFA) was added, and the solution was vigorously mixed. The ^1H NMR spectra was taken (16 transients) on a 500 MHz Varian instrument at multiple time points over the course of more than three half-lives. The study was conducted at room temperature (rt=22.5° C.±1.0° C.) Upon completion of the study, the 2′ and/or 7 methine resonances were integrated in a baseline-adjusted NMR spectrum using MestRec software. The relative integrations were used to determine the extent of hydrolysis. The data from three replications was plotted on a semi-log scale to determine the kobs of the prodrug that were then converted to the krel data as presented, defining the rate of the most slowly hydrolyzed prodrug (1d) as krel=1.0. Errors are defined as the standard deviation of the three trials.
^1H NMR spectroscopy was used to establish relative hydrolysis rates of compounds 1-3. The compounds were dissolved in a solution of d6-acetone, D2O, and trifluoroacetic acid (TFA) in a 90:9:1 ratio (v/v/v). Resonances of, e.g., H2′ in the reactant silicate vs. product carbinol were monitored.

[2] = test system: MDA-MB-231 cells; assay: MTT cytotoxicity of PTX silicate prodrugs; format: cell-based, human
Protocol: MDA-MB-231 and MDA-MB-231 Luciferase positive cells were maintained independently in MEM supplemented with 1% pen/strep and 10% FBS at 37° C. in a humidified incubator. MDA-MB-231 cells were obtained from the American Type Culture Collection. MDA-MB-231 Luc+ cells were obtained from CaliperLS (Hopkinton, Mass., USA). For MTT cytotoxicity studies, MDA-MB-231 cells were seeded at 8,000 cells/well in a 96 well plate in 100 μL MEM with 5% FBS. Paclitaxel, and paclitaxel silicate prodrug stock solutions of 10 mM were prepared in DMSO. Stock solutions were diluted to 2× concentration in MEM with 5% FBS, 100 μL volume, and pipetted into the 96 well plate. Concentration ranges were from 1-10,000 nM. After 48 hours, 30 μL of MTT working reagent was added to cells. Absorbance at 490 nm was monitored on a 96 well plate UV vis detector at 60 minutes. IC50 values were determined by nonlinear regression analysis of log concentration v. response data obtained from the MTT assay. The IC50 was interpolated from the resulting curves using Graphpad Prism v5.1 (Graphpad Software Inc. La Jolla Calif., USA).
Cytotoxicity of the PTX silicate prodrugs 1-3 was examined in the MDA-MB-231 human breast cancer cell line (Table 2).

[3] = test system: Tumor cells (4T1, PANC-1 or MDA-MB-231); assay: Cytotoxicity against tumor cells in vitro (MTS assay); format: cell-based; details: 72 hours, FIG. 2
Protocol: Tumor cells (4T1, PANC-1 or MDA-MB-231) were seeded in 96-well plates and allowed to attach. Cells were then treated with paclitaxel (solubilized in growth medium using ethanol), silicate prodrug (2a, solubilized in growth medium using ethanol), silicate prodrug nanoparticles (a 58:42 wt % mixture of the bis-triethyl silicate paclitaxel prodrug 2a and a 5K-10K PEG-PLGA BCP dispersed in growth medium) or copolymer-only (blank, no drug) nanoparticles for 72 hours. Cell viability was then measured using a standard MTS assay kit (Promega).

[4] = test system: Orthotopic 4T1 tumors; assay: 4T1 tumor growth in mice; format: in vivo, BALB/c mice
Protocol: Orthotopic 4T1 tumors were grown by injecting ˜1×10^6 tumor cells in the mammary fat pad of BALB/c mice. When the tumors were about 100 mm^3 in volume, the animals were injected with a single dose of paclitaxel dissolved in 1:1 mix of ethanol and cremophor (same formulation as Taxol®), silicate prodrug (2a) dissolved in 1:1 mix of ethanol and cremophor (same formulation as Taxol®), or silicate prodrug nanoparticles dispersed in buffered saline. Untreated animals or those treated with just cremophor/ethanol vehicle were used as controls. […] This study clearly indicates the benefit of formulating paclitaxel in the form of silicate prodrug nanoparticle formulation.

Row | Compound | krel at C2′ (hydrolysis rate relative to the slowest, 1d) [1] | pIC50 ([2]; Homo sapiens, MDA-MB-231, 48 h) | krel at C7 (hydrolysis rate relative to the slowest, 1d) [1] | further results
1 | CCO[Si](OCC)(OCC)O[C@@H](C(=O)O[C@H]1C[C@@]2(O)[C@@H](OC(=O)c3ccccc3)[C@@H]3[C@]4(OC(C)=O)CO[C@@H]4C[C@H](O)[C@@]3(C)C(=O)[C@H](OC(C)=O)C(=C1C)C2(C)C)[C@@H](NC(=O)c1ccccc1)c1ccccc1 [Compound 1a, 2′-O-(triethylorthosilyl)paclitaxel] | 2200 ± 600 | 7.64 |  | difference of krel values between the extremes 1a and 1d ([1]; 1a versus 1d): > 2000 ×; krel of 1a relative to 1b ([1]; hydrolysis rates of 1a and 1b called similar): ca. 3
2 | CCCCCCCCO[Si](OCCCCCCCC)(OCCCCCCCC)OC(C(=O)OC1CC2(O)C(OC(=O)c3ccccc3)C3C4(OC(C)=O)COC4CC(O)C3(C)C(=O)C(OC(C)=O)C(=C1C)C2(C)C)C(NC(=O)c1ccccc1)c1ccccc1 (centres unmarked) [Compound 1b, 2-O-(tri-n-octylorthosilyl)paclitaxel] | 710 ± 30 |  |  | pIC50 ([2]; MDA-MB-231 cells, cell viability measured after 48 h, MTT, read-out: IC50): 7.45
3 | CC(=O)O[C@H]1C(=O)[C@@]2(C)[C@H]([C@H](OC(=O)c3ccccc3)[C@]3(O)C[C@H](OC(=O)[C@H](O[Si](OC(C)C)(OC(C)C)OC(C)C)[C@@H](NC(=O)c4ccccc4)c4ccccc4)C(C)=C1C3(C)C)[C@]1(OC(C)=O)CO[C@@H]1C[C@@H]2O [Compound 1c, 2′-O-(tri-i-propylorthosilyl)paclitaxel] | 69 ± 4 | 7.61 |  | 
4 | CCO[Si](O[C@@H](C(=O)O[C@H]1C[C@@]2(O)[C@@H](OC(=O)c3ccccc3)[C@@H]3[C@]4(OC(C)=O)CO[C@@H]4C[C@H](O)[C@@]3(C)C(=O)[C@H](OC(C)=O)C(=C1C)C2(C)C)[C@@H](NC(=O)c1ccccc1)c1ccccc1)(OC(C)(C)C)OC(C)(C)C [Compound 1d, 2′-O-(di-t-butylethylorthosilyl)paclitaxel] | 1.0 ± 0.1 | 5.09 |  | 
5 | CCO[Si](OCC)(OCC)O[C@H]1C[C@H]2OC[C@@]2(OC(C)=O)[C@H]2[C@H](OC(=O)c3ccccc3)[C@]3(O)C[C@H](OC(=O)[C@H](O[Si](OCC)(OCC)OCC)[C@@H](NC(=O)c4ccccc4)c4ccccc4)C(C)=C([C@@H](OC(C)=O)C(=O)[C@]12C)C3(C)C [Compound 2a, 2′,7-Di-O-(triethylorthosilyl)paclitaxel] | 1800 ± 100 | 7.13 | 250 ± 10^a | anticancer efficacy (cell viability) compared with paclitaxel [3]: anticancer efficacy similar to the parent compound
6 | CCCCCCCCO[Si](OCCCCCCCC)(OCCCCCCCC)OC(C(=O)OC1CC2(O)C(OC(=O)c3ccccc3)C3C4(OC(C)=O)COC4CC(O[Si](OCCCCCCCC)(OCCCCCCCC)OCCCCCCCC)C3(C)C(=O)C(OC(C)=O)C(=C1C)C2(C)C)C(NC(=O)c1ccccc1)c1ccccc1 (centres unmarked) [Compound 2b, 2′,7-Di-O-(tri-n-octylorthosilyl)paclitaxel] | 460 ± 10 |  | 41 ± 3^b | 
7 | CCO[Si](OCC)(OCC)O[C@H]1C[C@H]2OC[C@@]2(OC(C)=O)[C@H]2[C@H](OC(=O)c3ccccc3)[C@]3(O)C[C@H](OC(=O)[C@H](O)[C@@H](NC(=O)c4ccccc4)c4ccccc4)C(C)=C([C@@H](OC(C)=O)C(=O)[C@]12C)C3(C)C [Compound 3a, 7-O-(triethylorthosilyl)paclitaxel] |  | 7.67 | 270 ± 10^ | 
8 | CCCCCCCCO[Si](OCCCCCCCC)(OCCCCCCCC)O[C@H]1C[C@H]2OC[C@@]2(OC(C)=O)[C@H]2[C@H](OC(=O)c3ccccc3)[C@]3(O)C[C@H](OC(=O)[C@H](O)[C@@H](NC(=O)c4ccccc4)c4ccccc4)C(C)=C([C@@H](OC(C)=O)C(=O)[C@]12C)C3(C)C [Compound 3b, 7-O-(tri-n-octylorthosilyl)paclitaxel] |  | 6.27 | 55 ± 3^ | 
9 | CC(=O)O[C@H]1C(=O)[C@@]2(C)[C@H]([C@H](OC(=O)c3ccccc3)[C@]3(O)C[C@H](OC(=O)[C@H](O)[C@@H](NC(=O)c4ccccc4)c4ccccc4)C(C)=C1C3(C)C)[C@]1(OC(C)=O)CO[C@@H]1C[C@@H]2O [PTX, paclitaxel] |  |  |  | pIC50 ([2]; Homo sapiens, MDA-MB-231 cells, cell viability measured after 48 h, MTT, read-out: IC50): 7.63; tumor volume ([4]; Day 13, single dose, tumors about 100 mm^3 at injection): 1450±65 mm^3; reaction at the site of injection ([4]; single injection, BALB/c mice): severe tissue irritation and necrosis at the site of injection
